Literature values as cited in patent US20220401441A1, “PHARMACEUTICAL COMPOSITION COMPRISING SELEXIPAG” (ACTELION PHARMACEUTICALS LTD, priority 2019, published 2022).

Test system: patients with pulmonary arterial hypertension
Details: selexipag versus placebo

Structure (SMILES): CC(C)N(CCCCOCC(=O)NS(C)(=O)=O)c1cnc(-c2ccccc2)c(-c2ccccc2)n1 [selexipag, 2-{4-[N-(5,6-diphenylpyrazin-2-yl)-N-isopropylamino]butyloxy}-N-(methylsulfonyl)acetamide]
- risk of the primary composite end point of death or a complication related to pulmonary arterial hypertension: significantly lower
